Source: PMC8876959, “Comparative Evaluation of Radiochemical and Biological Properties of ^131I- and [^99mTc]Tc(CO)3-Labeled RGD Analogues Planned to Interact with the αvβ3 Integrin Expressed in Glioblastoma” (Pharmaceuticals, 2022)
Values joined by “and” are separate entries in the source; they are usually repeats but may differ in a detail not shown here. Equal entries are not always repeated.

Key:
[1] = Partition coefficient (n-octanol/water); format: physicochemical; conditions: shake-flask, n-octanol/water (1:1), vortexed, 1 h at rest, centrifuged; gamma counter; mean ± SD, n = 6 (method: n = 5)
Experimental: A fraction (100 μL) of the radiopeptide was added to a water/n-octanol (1:1) mixture. The mixture was vigorously vortexed and kept at rest for 1 h. Then, it was centrifuged at 1677× g for 5 min. Equal samples from both aqueous/organic phases were collected and their radioactivities were measured in an automatic Wizard 3 2480 gamma counter (Perkin Elmer; Norwalk, CT, USA) to determine log P values (n = 5).

serum proteins = test: Serum protein binding (TCA precipitation); format: in vitro ADME; conditions: 25 µL radiopeptide in 175 µL serum, 37 °C, 1 h; 10% TCA precipitation; gamma counter; n = 6
Experimental: Radiopeptides (25 μL) were added to 175 µL of serum (n = 6) and incubated at 37 °C for 1 h. After, 1 mL of 10% trichloroacetic acid (TCA) was added for the precipitation of proteins. The mixture was vortexed for 1 min and centrifuged at 1677× g for 10 min. This process was repeated three times. Both the supernatant’s and pellet’s radioactivity were measured in an automatic Wizard 3 2480 gamma counter (Perkin Elmer; Norwalk, CT, USA).

C6 tumorigenic cells = test: Binding and internalization in C6 tumorigenic cells; format: cell-based, rat; conditions: 37 °C; for Bound fraction: 2 × 10^6 cells, 10 nmol radiopeptide
Experimental: The C6 cells were incubated at 37 °C in a humidified atmosphere containing 5% CO2 and maintained in culture using Dulbecco’s Modified Eagle Medium (DMEM)—F12 (Gibco; Gaithersburg, MD, USA) supplemented with 10% fetal bovine serum (Sigma-Aldrich; Darmstadt, Germany) and 1% glutamine (Sigma-Aldrich; Darmstadt, Germany). Cells were grown to 75% confluence and then harvested by trypsinization (0.04% trypsin/EDTA). After centrifugation (151× g for 5 min), the cells were resuspended in DMEM—F12 to a final concentration of […] for the development of the glioblastoma animal model.
(§1) An aliquot containing 2 × 10^6 C6 cells in supplemented DMEM-F12 culture medium (450 µL) was added to a vial and incubated with 10 nmol of the radiolabeled peptide at 37 °C with gentle agitation. The studies were evaluated at 1, 4 and 24 h (n = 7 for each time point). Then, the vials were centrifuged (604× g for 5 min). The radioactivities of the pellet and supernatant were separately evaluated using an automatic Wizard 3 2480 gamma counter (Perkin Elmer; Norwalk, CT, USA). The percentage of the bound fraction was calculated by Equation (1). (1) % bound fraction=Pellet radioactivity (cpm)/Pellet radioactivity (cpm)+supernatant radioactivity (cpm)×100
(§2) In the sequence, a second radioactivity determination was performed. For that, pellets were resuspended using 0.5 mL of acid buffer (0.2 M acetic acid in 0.5 M NaCl solution; pH 2.8) and maintained at room temperature for 5 min to remove the radiolabeled molecule attached to the cell membrane surface. Then, the vials were centrifuged (1677× g for 5 min). The pellet and supernatant were separated and their radioactivities were measured using the above-mentioned automatic gamma counter. The percentage of the internalized fraction of radiopeptides was estimated based on the ratio between the activity contained in the precipitate and the supernatant and calculated by Equation (2):(2) % internalized fraction=Pellet radioactivity (cpm)/Pellet radioactivity (cpm)+supernatant radioactivity (cpm)×100

[2] = test system: tumor-bearing glioblastoma brain homogenate (model); test: Binding and internalization in brain homogenate of glioblastoma model rats; set-up: species or system rat; conditions: 37 °C, n = 7
Experimental: as §1, §2
(§3) Adult male Sprague Dawley rats (280–320 g) were maintained under controlled environmental conditions (12 h light-dark cycle; constant temperature 21 ± 2 °C), with free access to water and food. Tumorigenic glioblastoma cells were implanted in the right frontal cortex, following specific coordinates (referred to bregma): anteroposterior = 1.0 mm; lateral = 3.0 mm; depth = 5.0 mm. An aliquot of culture medium (10 µL) containing 1 × 10^6 C6 cells in suspension was injected slowly (1 µL/min) using a Hamilton syringe positioned on a stereotaxic surgery frame. In the control group, only the culture medium, without cells, was injected. An interval of 20 days after cell inoculation was allowed for tumor development.
Brain homogenates were prepared at the concentration of ~10 mg of wet tissue in 1000 µL of PBS (pH 7.4). Normal brain tissue (control) and tumor-bearing brain tissue (model) were used. A 25 µL aliquot (1.2 MBq/nmol) of each radiopeptide was added to 200 µL of freshly prepared homogenates (n = 7). The homogenates containing the radiolabeled peptides were incubated at 37 °C for 1, 4 and 24 h. Binding and internalization fractions were determined as described in Section 3.11.

[3] = Ex vivo biodistribution in glioblastoma allograft tumor-bearing (model) rats; set-up: species or system rat; conditions: for Ex vivo biodistribution, Blood / Ex vivo biodistribution, Brain / Ex vivo biodistribution, Heart / Ex vivo biodistribution, Kidneys / Ex vivo biodistribution, Liver / Ex vivo biodistribution, Lungs / Ex vivo biodistribution, Spleen / Ex vivo biodistribution, Stomach: model rats, gamma counter, mean ± SEM, n = 3
Experimental: as §3
The ex vivo biodistribution of each radiolabeled peptide (4 MBq; 0.2 mL) was evaluated at 15, 60, and 240 min after IV injection in control and tumor-bearing animals (n = 3 per group, per time point). The molar activities in this study were 0.68 and 16.2 MBq/nmol for the iodine and tricarbonyl-labeled peptides, respectively. Animals were deeply anesthetized and sacrificed at the corresponding biodistribution time point. Brain, spleen, heart, stomach, liver, lungs, kidneys, and blood were collected and weighed. Then, their radioactivities were determined using the above-mentioned automatic gamma counter. The radioactivity of each organ/tissue was evaluated as the percentage of injected dose per gram of organ/tissue (% ID/g), using the same injected dose activity as a standard.

[4] = glioblastoma model brain homogenate, 24 h

Substance: [^99mTc]Tc(CO)3-GRGDHV
- Log P [1]: −1.13 ± 0.14
- Serum protein binding (SPB) (serum proteins): ~50% and 49.97 ± 0.01%
- Bound fraction (C6 tumorigenic cells; 1 h, n = 7): ~ 22%
- Bound fraction (C6 tumorigenic cells; 4 h, mean ± SD, n = 7): 23.47% ± 1.78
- Bound fraction (C6 tumorigenic cells; 24 h, n = 7): ~ 8%
- Internalized fraction (C6 tumorigenic cells; 1 h, acid buffer wash pH 2.8, n = 7): ~ 34%
- Internalized fraction (C6 tumorigenic cells; 4 h, acid buffer wash pH 2.8, mean ± SD, n = 7): 54.24% ± 3.99
- Internalized fraction (C6 tumorigenic cells; 24 h, acid buffer wash pH 2.8, n = 7): ~ 74%
- Bound fraction ([2]; glioblastoma model brain homogenate (~10 mg/1000 µL PBS pH 7.4), 1 h): ~ 50%
- Internalized fraction ([2]; glioblastoma model brain homogenate, 1 h): ~ 79%
- Bound fraction [2, 4]: ~ 78%
- Internalized fraction [2, 4]: ~ 98%
- Ex vivo biodistribution, Blood ([3]; 15 min after IV injection): 10.28 ± 2.93 %ID/g
- Ex vivo biodistribution, Blood ([3]; 60 min after IV injection): 8.91 ± 0.94 %ID/g
- Ex vivo biodistribution, Blood ([3]; 240 min after IV injection): 10.32 ± 1.51 %ID/g
- Ex vivo biodistribution, Brain ([3]; 15 min after IV injection): 0.71 ± 0.01 %ID/g
- Ex vivo biodistribution, Brain ([3]; 60 min after IV injection): 0.81 ± 0.01 %ID/g
- Ex vivo biodistribution, Brain ([3]; 240 min after IV injection): 1.57 ± 0.11 %ID/g
- Ex vivo biodistribution, Heart ([3]; 15 min after IV injection): 5.40 ± 0.48 %ID/g
- Ex vivo biodistribution, Heart ([3]; 60 min after IV injection): 5.14 ± 0.73 %ID/g
- Ex vivo biodistribution, Heart ([3]; 240 min after IV injection): 4.80 ± 0.11 %ID/g
- In vivo radiochemical stability ([3]; judged from ex vivo biodistribution (stomach uptake) in rats): better in vivo radiochemical stability
- Ex vivo biodistribution, Kidneys ([3]; 15 min after IV injection): 58.33 ± 1.43 %ID/g
- Ex vivo biodistribution, Kidneys ([3]; 60 min after IV injection): 58.99 ± 1.13 %ID/g
- Ex vivo biodistribution, Kidneys ([3]; 240 min after IV injection): 40.44 ± 2.99 %ID/g
- Ex vivo biodistribution, Liver ([3]; 15 min after IV injection): 7.04 ± 0.68 %ID/g
- Ex vivo biodistribution, Liver ([3]; 60 min after IV injection): 8.29 ± 0.43 %ID/g
- Ex vivo biodistribution, Liver ([3]; 240 min after IV injection): 11.62 ± 1.01 %ID/g
- Ex vivo biodistribution, Lungs ([3]; 15 min after IV injection): 10.03 ± 2.56 %ID/g
- Ex vivo biodistribution, Lungs ([3]; 60 min after IV injection): 7.83 ± 0.20 %ID/g
- Ex vivo biodistribution, Lungs ([3]; 240 min after IV injection): 9.38 ± 1.89 %ID/g
- Ex vivo biodistribution, Spleen ([3]; 15 min after IV injection): 3.74 ± 0.33 %ID/g
- Ex vivo biodistribution, Spleen ([3]; 60 min after IV injection): 2.88 ± 0.32 %ID/g
- Ex vivo biodistribution, Spleen ([3]; 240 min after IV injection): 4.12 ± 0.79 %ID/g
- Ex vivo biodistribution, Stomach ([3]; 15 min after IV injection): 4.44 ± 1.25 %ID/g
- Ex vivo biodistribution, Stomach ([3]; 60 min after IV injection): 7.28 ± 0.88 %ID/g
- Ex vivo biodistribution, Stomach ([3]; 240 min after IV injection): 14.60 ± 2.07 %ID/g
